Some targets named below: Cytochrome P450 3A4 (Homo sapiens, UniProt P08684); Cytochrome P450 2C9 (Homo sapiens, UniProt P11712); Cytochrome P450 2D6 (Homo sapiens, UniProt P10635).
Another series has as its target Cytochrome P450 2C19 (Homo sapiens, UniProt P33261). Description: Cytochrome panel assay with activity outcomes. Panel member name: p450-cyp2c19 Compounds with AC50 equal or less than 10 uM are considered active. The class given is functional. The note with it: read-out: AC50.
In the next series the target is T1, Cysteine protease ATG4B (Homo sapiens, UniProt Q9Y4P1).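 Further: Fluorescence-based dose-response confirmation assay measuring inhibition of ATG4B activity.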
T1 sequence (Q9Y4P1 whole entry): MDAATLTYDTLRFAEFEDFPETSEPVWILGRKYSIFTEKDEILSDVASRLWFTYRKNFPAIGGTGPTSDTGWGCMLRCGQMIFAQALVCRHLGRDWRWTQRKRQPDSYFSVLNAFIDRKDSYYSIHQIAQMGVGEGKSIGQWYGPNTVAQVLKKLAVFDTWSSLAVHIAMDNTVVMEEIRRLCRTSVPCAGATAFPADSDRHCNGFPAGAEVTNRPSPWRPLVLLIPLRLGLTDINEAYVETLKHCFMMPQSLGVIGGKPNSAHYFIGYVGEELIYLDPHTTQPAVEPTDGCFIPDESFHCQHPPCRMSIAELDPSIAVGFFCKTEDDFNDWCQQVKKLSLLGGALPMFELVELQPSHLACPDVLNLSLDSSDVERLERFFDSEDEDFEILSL
The class given is functional.

A further series concerns the target Phospholipase A2 (Homo sapiens, UniProt P04054). Type of series: functional.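 Further: confirmatory dose-response counterscreen on phospholipase A2, testing hits that came from an ultra-high-throughput screen for ATG4B inhibitors.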
The target in series [1] is T2, Ubiquitin-conjugating enzyme E2 N (Homo sapiens, UniProt P61088).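 Further: Dose-response confirmation in a TR-FRET assay detecting UBC13-driven polyubiquitin chain formation, inhibition measured.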
T2 sequence (P61088 whole entry): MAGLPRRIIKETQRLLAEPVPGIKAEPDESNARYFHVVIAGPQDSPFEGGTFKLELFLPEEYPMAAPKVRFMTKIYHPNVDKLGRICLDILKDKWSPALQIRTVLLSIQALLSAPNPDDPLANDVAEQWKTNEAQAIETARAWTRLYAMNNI
Type of series: functional.

In series [2] the test system is HEK293. Description: cells. The note with it: Homo sapiens. The class given is functional, cell-based.
Series [3] has as its target T3, Nuclear receptor subfamily 0 group B member 1 (Homo sapiens, UniProt P51843).
T3 sequence (P51843 whole entry): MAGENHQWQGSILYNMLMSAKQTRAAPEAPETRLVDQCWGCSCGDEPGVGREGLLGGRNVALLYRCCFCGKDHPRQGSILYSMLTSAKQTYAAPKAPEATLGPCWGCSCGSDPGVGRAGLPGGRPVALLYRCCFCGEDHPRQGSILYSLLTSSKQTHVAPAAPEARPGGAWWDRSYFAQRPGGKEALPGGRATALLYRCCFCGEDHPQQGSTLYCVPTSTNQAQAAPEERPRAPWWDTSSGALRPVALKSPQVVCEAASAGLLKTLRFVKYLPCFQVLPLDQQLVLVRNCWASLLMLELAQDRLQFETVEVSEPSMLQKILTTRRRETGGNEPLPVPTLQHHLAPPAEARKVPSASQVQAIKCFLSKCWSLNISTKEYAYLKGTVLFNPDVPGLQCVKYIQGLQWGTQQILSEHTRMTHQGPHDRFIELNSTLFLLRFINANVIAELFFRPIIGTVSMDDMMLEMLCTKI
Description: Luminescence-based cell-based high throughput dose response assay for inhibitors of the orphan nuclear receptor subfamily 0, group B, member 1 (DAX1; NR0B1). [Related pubchem assays (depositor defined):AID504766, AID504790]. The class given is functional.

Series [4] in a line: NIH-3T3 fibroblast cytotoxicity, dose response, cytotoxicity control, cell-based, fluorescence, Alamar Blue, secondary assay (AID 2327).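 Further: NIH-3T3 mouse fibroblasts cultured with fluconazole at 8 µg/mL.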 The class given is functional. (In general: The colour change of resazurin is a common sign of viable cells or microbes.)
A short description of series [5]: Trypanosoma cruzi growth suppression in host cells – NIH3T3 host cells, beta-gal luminescence, confirmation (AID 2044).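 Further: intracellular parasites grown in NIH/3T3 mouse fibroblasts as host cells; luminescent beta-galactosidase reporter signal from transgenic T. cruzi replicating inside host cells; inhibitors lower the luminescence signal.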 Type of series: functional, cell-based.
Series [6] in a line: fluconazole-exposed Candida albicans growth modulators – fluorescence, retest, confirmation (AID 2467). Type of series: functional, cell-based.
Series [7] in a line: NIH3T3 cell viability loss – ATP luminescence, mouse fibroblasts, counter-screen, dose response (AID 2010).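 Further: cells exposed to compound for about 90 hours before reading.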 Type of series: functional, cell-based. On the technique in general: A counterscreen serves to expose hits that act by an unwanted route or on another target.
The subject of series [8] is HEK293. Description: cells. The class given is functional, cell-based. The note with it: Homo sapiens. The source holds these as a separate data set.
Series [9] concerns HEK293. Description: NOD2 signaling inhibitors in MDP-stimulated cells, cell-based, uHTS, luminescence (AID 2001). The class given is functional. The note with it: Homo sapiens.
A short description of series [10]: loss of viability in HepG2 cells – cell-based, CellTiter-Glo, cherry-picked, cytotoxicity control for Shn3 inhibitor project, dose response (AID 624134). The class given is functional. For orientation: ATP-based viability assays read luminescence as a measure of living cells.
Series [11] has as its system HEK293. Description: inhibition of NOD1-driven NF-kB reporter – cell-based, luminescence, uHTS, primary screen (AID 1578). The class given is functional. The conditions noted are these: Homo sapiens.
Series [12] concerns the target Nucleotide-binding oligomerization domain-containing protein 2 (Homo sapiens, UniProt Q9HC29). Description: inhibition of NOD2-driven NF-kB reporter – cell-based, luminescence, uHTS, HEK293 (AID 1566). Type of series: functional.
Series [13] concerns HEK293. Description: cells. The note with it: Homo sapiens. The class given is functional, cell-based. This is another data set of the same source.
Series [14] addresses T4, High affinity choline transporter 1 (Homo sapiens, UniProt Q9GZV3).
T4 sequence (Q9GZV3 whole entry): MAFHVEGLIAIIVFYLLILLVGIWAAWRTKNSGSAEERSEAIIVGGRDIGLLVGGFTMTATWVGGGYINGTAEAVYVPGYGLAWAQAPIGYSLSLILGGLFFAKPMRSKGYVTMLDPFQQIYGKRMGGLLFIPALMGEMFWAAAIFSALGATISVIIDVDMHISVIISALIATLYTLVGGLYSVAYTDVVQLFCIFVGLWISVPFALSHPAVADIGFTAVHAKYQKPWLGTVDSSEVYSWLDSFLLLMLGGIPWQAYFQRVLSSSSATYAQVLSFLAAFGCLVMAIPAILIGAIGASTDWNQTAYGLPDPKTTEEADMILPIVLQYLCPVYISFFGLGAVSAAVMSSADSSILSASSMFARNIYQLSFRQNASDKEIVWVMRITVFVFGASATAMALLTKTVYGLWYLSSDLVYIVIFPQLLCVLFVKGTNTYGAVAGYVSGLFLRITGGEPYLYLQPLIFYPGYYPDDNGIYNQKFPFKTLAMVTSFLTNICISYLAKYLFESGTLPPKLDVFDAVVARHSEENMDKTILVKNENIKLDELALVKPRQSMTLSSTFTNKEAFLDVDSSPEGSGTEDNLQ
Briefly: human choline transporter blockers, potency – cell-based, 5-point CRC, membrane potential dye, dose response (AID 504840). The class given is functional.

Series [15] deals with HEK293. Description: cells. Type of series: functional, cell-based. The conditions noted are these: Homo sapiens. This is another data set of the same source.
A short description of series [16]: reduction of Shn3 3'UTR-driven luciferase in osteoblasts – cell-based, Clone20 osteoblasts, firefly luciferase, cherry-picked, dose response (AID 624132).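 Further: firefly luciferase luminescence from reporter carrying the Shn3 3'UTR in osteoblasts.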 The class given is functional.
The nature of series [17]: non-specific 3'UTR reporter inhibition in Clone20-Shn3RL – cell-based, Renilla luciferase, cherry-picked, counter-screen for Shn3 inhibitor project, dose response (AID 624133). The class given is functional.
The target of the next series is T5, Cytochrome P450 1A2 (Homo sapiens, UniProt P05177).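 Further: PubChem cytochrome P450 panel assay, CYP1A2 panel member.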
T5 sequence (P05177 whole entry): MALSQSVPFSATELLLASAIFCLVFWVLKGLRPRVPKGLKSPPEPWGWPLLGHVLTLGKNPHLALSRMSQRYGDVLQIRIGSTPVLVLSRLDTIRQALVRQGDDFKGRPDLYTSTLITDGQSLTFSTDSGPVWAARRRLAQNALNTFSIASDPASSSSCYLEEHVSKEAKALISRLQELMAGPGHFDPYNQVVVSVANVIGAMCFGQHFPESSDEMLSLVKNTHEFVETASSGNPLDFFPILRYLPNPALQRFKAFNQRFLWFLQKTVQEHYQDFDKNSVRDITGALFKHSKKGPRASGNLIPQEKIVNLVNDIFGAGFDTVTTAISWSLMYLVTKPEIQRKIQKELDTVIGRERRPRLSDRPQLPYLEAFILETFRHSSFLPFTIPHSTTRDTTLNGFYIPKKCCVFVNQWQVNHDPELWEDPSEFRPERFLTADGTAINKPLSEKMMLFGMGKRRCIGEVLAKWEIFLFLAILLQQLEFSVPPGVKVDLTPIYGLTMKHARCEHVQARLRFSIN

The results in this text go back to ChEMBL document CHEMBL1201862, “PubChem BioAssay data set” (2004).

Usually AC50 stands for the concentration giving half of the maximal activity seen. As a reminder, the IC50 is the concentration that inhibits the measured activity by half. Usually EC50 stands for the concentration giving half of the maximal effect.

Calls of active or inactive are those of the source.

Cytochrome P450 3A4, sequence (P08684 whole entry): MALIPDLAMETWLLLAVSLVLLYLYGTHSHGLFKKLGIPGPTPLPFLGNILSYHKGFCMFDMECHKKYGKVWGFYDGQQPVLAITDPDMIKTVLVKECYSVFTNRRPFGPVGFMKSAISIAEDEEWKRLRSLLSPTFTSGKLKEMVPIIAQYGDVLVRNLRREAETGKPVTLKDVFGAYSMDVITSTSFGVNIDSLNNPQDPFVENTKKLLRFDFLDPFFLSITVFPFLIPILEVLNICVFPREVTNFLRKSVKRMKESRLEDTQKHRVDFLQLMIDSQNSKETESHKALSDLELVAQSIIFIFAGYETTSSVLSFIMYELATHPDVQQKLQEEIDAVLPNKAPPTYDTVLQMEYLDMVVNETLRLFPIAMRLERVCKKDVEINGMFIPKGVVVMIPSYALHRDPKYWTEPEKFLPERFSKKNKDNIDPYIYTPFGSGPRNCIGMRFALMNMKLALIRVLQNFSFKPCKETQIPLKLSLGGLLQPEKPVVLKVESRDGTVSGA
Phospholipase A2, sequence (P04054 whole entry): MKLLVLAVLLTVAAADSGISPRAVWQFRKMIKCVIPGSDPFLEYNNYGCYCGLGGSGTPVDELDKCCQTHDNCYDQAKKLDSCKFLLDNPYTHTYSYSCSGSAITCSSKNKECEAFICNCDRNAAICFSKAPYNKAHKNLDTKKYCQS
Cytochrome P450 2C9, sequence (P11712 whole entry): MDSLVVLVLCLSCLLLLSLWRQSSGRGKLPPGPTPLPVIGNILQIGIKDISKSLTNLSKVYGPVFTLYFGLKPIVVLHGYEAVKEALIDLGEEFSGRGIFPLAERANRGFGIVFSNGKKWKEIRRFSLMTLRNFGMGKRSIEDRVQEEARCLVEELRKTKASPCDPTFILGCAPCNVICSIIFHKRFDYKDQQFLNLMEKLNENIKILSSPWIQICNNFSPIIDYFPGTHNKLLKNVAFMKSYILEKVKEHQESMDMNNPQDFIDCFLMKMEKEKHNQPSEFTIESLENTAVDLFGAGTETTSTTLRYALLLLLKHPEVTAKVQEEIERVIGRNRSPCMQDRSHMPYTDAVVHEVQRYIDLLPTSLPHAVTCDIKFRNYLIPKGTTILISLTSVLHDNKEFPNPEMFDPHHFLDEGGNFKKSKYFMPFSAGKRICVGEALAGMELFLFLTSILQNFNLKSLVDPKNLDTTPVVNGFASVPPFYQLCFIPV
Cytochrome P450 2D6, sequence (P10635 whole entry): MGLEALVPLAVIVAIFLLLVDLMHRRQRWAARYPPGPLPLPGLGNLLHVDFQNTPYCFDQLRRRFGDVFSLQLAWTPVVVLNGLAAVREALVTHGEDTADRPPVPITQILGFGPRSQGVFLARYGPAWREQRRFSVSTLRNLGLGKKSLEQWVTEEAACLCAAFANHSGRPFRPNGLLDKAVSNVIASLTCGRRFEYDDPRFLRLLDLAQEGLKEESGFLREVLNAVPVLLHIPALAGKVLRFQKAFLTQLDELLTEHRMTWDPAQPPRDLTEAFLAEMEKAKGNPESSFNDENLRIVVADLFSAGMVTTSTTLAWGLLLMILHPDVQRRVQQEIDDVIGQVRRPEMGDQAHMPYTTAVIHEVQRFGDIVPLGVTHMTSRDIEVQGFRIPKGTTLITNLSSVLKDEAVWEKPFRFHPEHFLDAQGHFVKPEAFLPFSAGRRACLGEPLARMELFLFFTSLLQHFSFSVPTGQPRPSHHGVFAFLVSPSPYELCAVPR
Nucleotide-binding oligomerization domain-containing protein 2, sequence (Q9HC29 whole entry, the tested form may be a part): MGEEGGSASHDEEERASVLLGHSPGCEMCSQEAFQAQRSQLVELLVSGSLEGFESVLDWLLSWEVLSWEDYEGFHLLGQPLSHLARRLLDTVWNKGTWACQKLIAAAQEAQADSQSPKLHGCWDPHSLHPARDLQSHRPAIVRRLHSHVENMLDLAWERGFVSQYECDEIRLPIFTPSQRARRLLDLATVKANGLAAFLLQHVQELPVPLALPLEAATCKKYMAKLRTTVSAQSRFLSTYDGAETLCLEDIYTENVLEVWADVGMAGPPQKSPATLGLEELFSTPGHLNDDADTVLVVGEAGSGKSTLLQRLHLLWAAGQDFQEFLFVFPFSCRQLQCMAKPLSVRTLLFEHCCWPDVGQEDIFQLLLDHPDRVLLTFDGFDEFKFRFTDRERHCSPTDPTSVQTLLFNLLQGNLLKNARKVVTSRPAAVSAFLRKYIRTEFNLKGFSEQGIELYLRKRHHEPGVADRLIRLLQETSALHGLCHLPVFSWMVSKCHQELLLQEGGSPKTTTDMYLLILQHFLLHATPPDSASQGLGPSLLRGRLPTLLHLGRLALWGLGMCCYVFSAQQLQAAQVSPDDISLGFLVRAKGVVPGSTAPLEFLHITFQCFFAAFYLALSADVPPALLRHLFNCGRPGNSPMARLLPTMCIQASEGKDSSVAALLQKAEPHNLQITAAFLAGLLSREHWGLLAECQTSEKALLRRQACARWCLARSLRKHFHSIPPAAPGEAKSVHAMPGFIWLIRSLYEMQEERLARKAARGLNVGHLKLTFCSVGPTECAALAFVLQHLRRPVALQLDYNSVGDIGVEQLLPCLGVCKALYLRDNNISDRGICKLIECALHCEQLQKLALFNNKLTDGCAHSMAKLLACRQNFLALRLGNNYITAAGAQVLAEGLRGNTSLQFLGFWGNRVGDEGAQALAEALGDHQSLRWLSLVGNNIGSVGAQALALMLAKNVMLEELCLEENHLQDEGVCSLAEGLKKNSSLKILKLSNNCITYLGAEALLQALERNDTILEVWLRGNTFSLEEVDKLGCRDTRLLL
Cytochrome P450 2C19, sequence (P33261 whole entry): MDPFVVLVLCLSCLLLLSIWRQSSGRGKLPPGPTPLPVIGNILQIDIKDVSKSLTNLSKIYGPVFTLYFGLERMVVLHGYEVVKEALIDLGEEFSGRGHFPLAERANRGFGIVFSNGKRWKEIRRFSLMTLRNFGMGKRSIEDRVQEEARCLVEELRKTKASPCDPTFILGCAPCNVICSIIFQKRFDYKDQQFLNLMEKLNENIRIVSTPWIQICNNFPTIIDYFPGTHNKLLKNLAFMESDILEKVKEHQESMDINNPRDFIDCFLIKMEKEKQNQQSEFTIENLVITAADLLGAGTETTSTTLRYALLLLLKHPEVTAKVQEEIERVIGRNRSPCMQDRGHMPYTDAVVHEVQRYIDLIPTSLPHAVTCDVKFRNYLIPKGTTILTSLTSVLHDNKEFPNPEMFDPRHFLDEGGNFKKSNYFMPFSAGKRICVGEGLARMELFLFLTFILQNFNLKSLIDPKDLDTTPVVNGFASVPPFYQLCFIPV

For the molecule `CCOC(=O)c1c(-c2ccccc2)nc2ccccn12`, the concentration at half-maximal activity (AC50) entry is “inconclusive” on Cytochrome P450 3A4, 25.1 µM (inconclusive) at Cytochrome P450 2C19 and 25.1 µM (inconclusive) at Cytochrome P450 2C9.
With `CCCCn1c(SCC(=O)Nc2cc(C)n[nH]2)nc2ccsc2c1=O`, the values for the IC50 (on Cysteine protease ATG4B; at Phospholipase A2; in series [1]) were 12.2 µM (active), 9.31 µM (active) and > 20 µM (inactive), respectively.
For `CC1=CC(c2ccccc2)n2nnnc2N1` (stereo unspecified), the IC50 (with HEK293 [2]; in series [3]) was > 67.6 µM (inactive) throughout.
Consider `O=C(c1ccccc1)c1cnc(Nc2ccccc2Cl)s1`, for which the IC50 at Cysteine protease ATG4B was 11.5 µM (active); on Phospholipase A2, 7.65 µM (active).
Turning to `COc1ccc(-c2[nH]nc3c2C(c2ccc(OC(=O)N4CCOCC4)cc2)C(C#N)=C(N)O3)cc1` (stereo unspecified), the IC50 on Cysteine protease ATG4B is 18.3 µM (active); on Phospholipase A2, 13.4 µM (active).
For the molecule `O=C(c1ccccc1)c1ccc2[nH]c(-c3ccc(NC(=O)c4ccccc4Br)cc3)nc2c1`, the EC50 in series [4] is 2.97 µM (active); in series [5] it was 1.59 µM (active); in [6], 6.15 µM (active); in [7], 7.33 µM (active). The half-maximal activity concentration (AC50) result was “inconclusive” on Cytochrome P450 3A4 and 14.1 µM (inconclusive) at Cytochrome P450 2D6.
Consider `COc1ccc(-c2nc(CN3CCN(c4ncnc5ccccc45)CC3)c(C)o2)c(OC)c1`, for which the IC50 with HEK293 [8] is 13.7 µM (active); with HEK293 [9], 6.38 µM (active); in the series with HEK293 [13] it was 6.96 µM (active); in [14] it was 16.8 µM (active); in the series with HEK293 [15], > 20 µM (inactive). The AC50 in series [10] is > 70 µM (inactive); in series [16], 6.38 µM (active); in series [17], 5.24 µM (active). Also, the EC50 in the series with HEK293 [11] was 5.23 µM (active); in series [12] it was 5.52 µM (active).
`O=C(Nc1ccccc1)N1CC2(CCN(C(=O)Oc3ccccc3)CC2)C1`: the half-maximal activity concentration (AC50) on Cytochrome P450 1A2 was 20 µM (inconclusive); on Cytochrome P450 3A4, “inconclusive”.
As to `C[C@@H]1CN(Cc2nc(-c3cccs3)no2)C[C@H](C)O1`, the IC50 (in the series on HEK293 [2]; in [3]) was > 67.5 µM (inactive) throughout.
Turning to `O=C(Oc1ccccc1)N1CCC2(CC1)CN(c1ncccn1)C2`, the half-maximal activity concentration (AC50) on Cytochrome P450 1A2 was 25.1 µM (inconclusive); on Cytochrome P450 3A4, “inconclusive”; at Cytochrome P450 2C9 it was 25.1 µM (inconclusive).
On to `CN(NC1OC(=O)c2ccccc21)c1ccccc1[N+](=O)[O-]` (stereo unspecified), for which the IC50 (in the series on HEK293 [2]; in series [3]) was > 67.5 µM (inactive) throughout.
On to `COC(=O)c1cc(/N=C/c2c(O)oc3ccccc3c2=O)cc(C(=O)OC)c1`, for which the IC50 (in the series with HEK293 [2]; in series [3]) was > 67.5 µM (inactive) each time.
As to `Cc1c(C)c(C)c(CO/N=C/c2cccs2)c(C)c1C`, the IC50 on Cysteine protease ATG4B is 17.4 µM (active); at Phospholipase A2 it was 7.99 µM (active).
